Data: patent US20070031341A1, “Methods of delivering therapeutics to the brain” (priority 2005, published 2007)

Experiments:
[1] = pKa and protonated cationic fraction of lubeluzole; assay type: physicochemical
Excerpt: Because lubeluzole has a PKa of 7.6 it is present in its protonated cationic form at pHs less than 7.6. For example, at pHs of 7.4 and 6.0, about 61% and 97% of lubeluzole is respectively present in its protonated cationic form. Therefore, the skilled artisan can expect a significant amount of lubeluzole to be present in its cationic form at relatively mild pHs and particularly at the pHs of physiologic CSF (˜7.5). Moreover, support for the transport of benzothiazole derivatives is found in the literature. Levamisole is believed to be a benzothiazole derivativethat has been transdermally transported iontophoretically in order to treat herpes simplex virus and recurrent aphthous stomatitis.

[2] = cited from earlier work
[3] = test system: cerebellar granule cells exposed to MPP+ neurotoxin; conditions: 100 μM Vitamin E; about 50% without; cited from earlier work

lubeluzole present in its protonated cationic form ([1]; pH 6.0) [%]	lubeluzole present in its protonated cationic form ([1]; pH 7.4)	Compound	PKa [2]	in vitro viability of cerebellar granule cells exposed to MPP+ [3]
~97	about 61%	CN(c1nc2ccccc2s1)C1CCN(C[C@H](O)COc2ccc(F)c(F)c2)CC1 [lubeluzole]	7.6	–
–	–	Vitamin E	–	about 85%
